Test results published in patent US20260158017A1, “KIF18A INHIBITOR” (WIGEN BIOMEDICINE TECHNOLOGY (SHANGHAI) CO., LTD., priority 2021, published 2026).

Assays:
[1] = biological target: T1, Recombinant human KIF18A (1-467His-tagged) protein (Homo sapiens, UniProt Q8NI77); assay: KIF18A enzyme assay (microtubule-stimulated ATPase activity, ADP-Glo); type: biochemical; settings: 30 nM KIF18A, 75 μM ATP, 30 μg/mL pig microtubules; read-out: Inhibitory activity against KIF18A IC50
T1 construct: Recombinant human KIF18A (1-467His-tagged) protein; His; made in house
T1 sequence (Q8NI77 1-467): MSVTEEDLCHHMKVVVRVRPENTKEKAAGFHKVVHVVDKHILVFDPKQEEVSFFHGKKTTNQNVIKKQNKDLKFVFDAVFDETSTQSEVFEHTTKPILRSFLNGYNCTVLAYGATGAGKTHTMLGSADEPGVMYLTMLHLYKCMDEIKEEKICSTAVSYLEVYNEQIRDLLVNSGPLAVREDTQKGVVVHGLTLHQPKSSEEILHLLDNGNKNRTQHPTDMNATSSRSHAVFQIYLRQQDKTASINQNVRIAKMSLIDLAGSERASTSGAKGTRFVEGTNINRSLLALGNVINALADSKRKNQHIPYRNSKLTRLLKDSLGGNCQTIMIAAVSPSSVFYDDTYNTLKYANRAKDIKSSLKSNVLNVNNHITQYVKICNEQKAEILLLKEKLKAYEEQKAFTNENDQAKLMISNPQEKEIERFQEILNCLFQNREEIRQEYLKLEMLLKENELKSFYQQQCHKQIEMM
T1 sequence (P02550 whole entry partner): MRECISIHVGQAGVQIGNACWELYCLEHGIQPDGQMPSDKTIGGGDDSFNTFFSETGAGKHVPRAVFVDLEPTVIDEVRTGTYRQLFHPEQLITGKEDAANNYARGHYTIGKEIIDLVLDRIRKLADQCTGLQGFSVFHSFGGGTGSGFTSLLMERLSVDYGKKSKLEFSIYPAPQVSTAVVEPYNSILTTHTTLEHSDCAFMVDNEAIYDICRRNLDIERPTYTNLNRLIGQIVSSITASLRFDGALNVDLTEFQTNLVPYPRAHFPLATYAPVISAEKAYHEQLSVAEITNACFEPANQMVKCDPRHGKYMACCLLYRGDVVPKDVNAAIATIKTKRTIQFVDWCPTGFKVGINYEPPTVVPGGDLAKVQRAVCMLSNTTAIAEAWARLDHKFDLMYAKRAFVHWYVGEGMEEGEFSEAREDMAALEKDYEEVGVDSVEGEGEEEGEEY
T1 sequence (P02554 whole entry partner): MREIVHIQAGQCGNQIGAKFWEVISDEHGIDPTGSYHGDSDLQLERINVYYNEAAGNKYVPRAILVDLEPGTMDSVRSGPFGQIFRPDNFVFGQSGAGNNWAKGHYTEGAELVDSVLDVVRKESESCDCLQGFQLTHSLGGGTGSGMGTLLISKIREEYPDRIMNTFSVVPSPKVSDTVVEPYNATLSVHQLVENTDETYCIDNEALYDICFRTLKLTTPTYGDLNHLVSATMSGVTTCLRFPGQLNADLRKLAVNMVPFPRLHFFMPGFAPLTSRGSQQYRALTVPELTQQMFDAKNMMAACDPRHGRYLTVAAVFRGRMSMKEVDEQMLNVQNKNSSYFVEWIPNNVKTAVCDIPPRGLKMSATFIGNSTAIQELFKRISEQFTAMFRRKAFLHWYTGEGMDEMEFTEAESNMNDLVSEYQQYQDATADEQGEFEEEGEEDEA
How it was run: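 Buffer 15 mM Tris pH 7.5, 10 mM MgCl2, 0.01% Pluronic F-68, 1 μM paclitaxel, 30 μg/mL pig microtubules; reactions at room temperature. IC50 from inhibition relative to DMSO.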

HT-29 cells = assay: In vitro anti-proliferative activity against HT-29 cells (intracellular ATP content, 72 h); type: cell-based; settings: Homo sapiens, 72 h after dosing
Description: Biological Example 2. In Vitro Anti-Proliferative Activity of the Compounds of the Present Invention Against HT-29 Cells
(§1) HT-29 cells were seeded on a 384-well plate at 3000 cells/well. After overnight adherence culture, DMSO or the compounds serially 1:5-diluted from 5 μM were added. The viability of the cells was assessed 72 h after dosing by measuring the intracellular ATP content. The inhibition percentages of viable cells by the compounds were calculated by comparing with the DMSO group, and the IC50 values were also calculated.

HCT116 cells = assay: In vitro anti-proliferative activity against HCT116 cells (intracellular ATP content, 72 h); type: cell-based; settings: Homo sapiens, HCT-116, 72 h after dosing
Description: Biological Example 3. In Vitro Anti-Proliferative Activity of the Compounds of the Present Invention Against HCT116 Cells
as §1, with “HCT116” for “HT-29”, “IC 50” for “IC50”

[2] = tested on: HT29 subcutaneous xenograft tumor; assay: In vivo pharmacodynamic study, mouse HT29 subcutaneous xenograft tumor model; set-up: species or system BALB/c nude mice; settings: for Tumor volume on day 1 of treatment / Tumor volume on day 28 of treatment / TGI (tumor growth inhibition): 80 mg/kg intragastric once daily; for Tumor volume on day 1 of treatment: baseline day 1; for TGI (tumor growth inhibition): day 28 vs day 1; for Inhibitory effect on HT29 mouse subcutaneous xenograft tumor (in words): 80 mg/kg, comparison with AMG650
Description: Biological Example 4. In Vivo Pharmacodynamic Study-Mouse HT29 Subcutaneous Xenograft Tumor Model
BALB/c nude mice were inoculated subcutaneously with 5×10^6 HT29 cells on the left dorsal side. After the tumors grew to 100-150 mm^3, the mice were randomly divided into the following groups for intragastric administration once daily: group 1: vehicle control group; group 2: compound 661 (80 mg/kg); group 3: compound 669 (80 mg/kg); group 4: compound 677 (80 mg/kg); group 5: compound 714 (80 mg/kg); group 6: compound 727 (80 mg/kg); group 7: compound 740 (80 mg/kg); and group 8: AMG650 (80 mg/kg). The tumor volume was measured twice weekly and at the end of treatment.

| SMILES | IC50 [1] | IC50 (HT-29 cells) | IC50 (HCT116 cells) | further results |
| --- | --- | --- | --- | --- |
| C[C@H]1CN(c2cc(NC(=O)c3ccc(NS(=O)(=O)CCO)cc3N3CCC4(CC3)CC4)ccc2[N+](=O)[O-])CCO1 [Compound 3] | ≤ 100 nM | 1600 nM | > 10000 nM |  |
| O=C(Nc1ccc([N+](=O)[O-])c(N2CC(F)(F)C2)c1)c1ccc(NS(=O)(=O)CCO)cc1N1CCC2(CC1)CC2 [Compound 4] | ≤ 100 nM | 191 nM | > 10000 nM |  |
| O=C(Nc1ccc([N+](=O)[O-])c(N2CCC3(CC3)C2)c1)c1ccc(NS(=O)(=O)CCO)cc1N1CCC2(CC1)CC2 [Compound 6] | ≤ 100 nM | 826 nM | > 10000 nM |  |
| O=C(Nc1ccc([N+](=O)[O-])c(OC2CCC2)c1)c1ccc(NS(=O)(=O)CCO)cc1N1CCC2(CC1)CC2 [Compound 7] | ≤ 100 nM | 339 nM | > 10000 nM |  |
| O=C(Nc1ccc([N+](=O)[O-])c(N2CCC(F)(F)CC2)c1)c1cnc(NS(=O)(=O)CCO)cc1N1CCC2(CC1)CC2 [Compound 97] | ≤ 100 nM | > 2000 nM | > 10000 nM |  |
| COc1ccc(NC(=O)c2ccc(NS(=O)(=O)CCO)cc2N2CCC3(CC2)CC3)nc1N1CCO[C@H](C)C1 [Compound 258] | ≤ 100 nM | 190 nM | > 10000 nM |  |
| COc1ccc(NC(=O)c2ccc(NS(=O)(=O)CCO)cc2N2CCC3(CC2)CC3)nc1N1CCO[C@@H](C)C1 [Compound 259] | ≤ 100 nM | 282 nM | > 10000 nM |  |
| COc1ccc(NC(=O)c2ccc(NS(=O)(=O)CCO)cc2N2CCC3(CC2)CC3)nc1OCCC(F)(F)F [Compound 261] | ≤ 100 nM | 75.7 nM | > 10000 nM |  |
| COc1ccc(NC(=O)c2ccc(NS(=O)(=O)CCO)cc2N2CCC3(CC2)CC3)nc1OC1CCC1 [Compound 263] | ≤ 100 nM | 85.7 nM | > 10000 nM |  |
| COc1ccc(NC(=O)c2cnc(S(=O)(=O)NCCO)cc2N2CCC3(CC2)CC3)nc1N1CCC(F)(F)CC1 [Compound 305] | ≤ 100 nM | 40.4 nM | > 10000 nM |  |
| COc1ccc(C(=O)Nc2ccc(S(=O)(=O)NCCO)cc2N2CCC3(CC2)CC3)nc1N1CCC(F)(F)CC1 [Compound 337] | ≤ 100 nM | 48.8 nM | > 10000 nM |  |
| CSc1ccc(NC(=O)c2cnc(NS(=O)(=O)CCO)cc2N2CCC3(CC2)CC3)nc1OC1CCC1 [Compound 631] | ≤ 100 nM |  |  |  |
| CSc1ccc(NC(=O)c2cnc(NS(=O)(=O)CCO)cc2N2CCC3(CC2)CC3)nc1N1CC2CC2C1 (stereo not shown) [Compound 634] | ≤ 100 nM |  |  |  |
| CSc1ccc(NC(=O)c2cnc(NS(=O)(=O)CCO)cc2N2CCC3(CC2)CC3)nc1NC(C)(C)CO [Compound 635] | ≤ 100 nM |  |  |  |
| CSc1ccc(NC(=O)c2cnc(NS(=O)(=O)[C@@H](C)CO)cc2N2CCC3(CC2)CC3)nc1N1CCO[C@H](C)C1 [Compound 639] | ≤ 100 nM |  |  |  |
| CSc1ccc(NC(=O)c2cnc(NS(=O)(=O)[C@H](C)CO)cc2N2CCC3(CC2)CC3)nc1N1CCO[C@H](C)C1 [Compound 640] | ≤ 100 nM |  |  |  |
| COc1ccc(NC(=O)c2ccc(S(=O)(=O)NCCOC(C)=O)cc2N2CCC3(CC2)CC3)nc1N1CCC(F)(F)CC1 [Compound 677] |  |  |  | Tumor volume on day 1 of treatment [2]: 121 mm^3; Tumor volume on day 28 of treatment [2]: 797 mm^3; TGI (tumor growth inhibition) [2]: 55% |
| CN(C)c1ccc(C(=O)Nc2ccc(NS(=O)(=O)CCO)cc2N2CCC3(CC2)CC3)cc1N1CCC(F)(F)CC1 [Compound 703] |  | 184 nM | > 10000 nM |  |
| CNc1ccc(C(=O)Nc2ccc(NS(=O)(=O)CCO)cc2N2CCC3(CC2)CC3)cc1N1CCC(F)(F)CC1 [Compound 704] |  | 64.2 nM | > 10000 nM |  |
| COc1ccc(C(=O)Nc2ccc(NS(=O)(=O)CCOC(=O)[C@@H](N)C(C)C)cc2N2CCC3(CC2)CC3)nc1N1CCC(F)(F)CC1 [Compound 727] |  |  |  | Tumor volume on day 1 of treatment [2]: 121 mm^3; Tumor volume on day 28 of treatment [2]: 519 mm^3; TGI (tumor growth inhibition) [2]: 73%; Inhibitory effect on HT29 mouse subcutaneous xenograft tumor (in words) [2]: stronger inhibitory effects |
| COc1ccc(NC(=O)c2ccc(S(=O)(=O)NCCOC(=O)[C@@H](N)C(C)C)cc2N2CCC3(CC2)CC3)nc1N1CCC(F)(F)CC1 [Compound 740] |  |  |  | Tumor volume on day 1 of treatment [2]: 121 mm^3; Tumor volume on day 28 of treatment [2]: 605 mm^3; TGI (tumor growth inhibition) [2]: 67%; Inhibitory effect on HT29 mouse subcutaneous xenograft tumor (in words) [2]: stronger inhibitory effects |
| COc1ccc(NC(=O)c2ccc(NS(=O)(=O)CCO)cc2N2CCC3(CC2)CC3)nc1NCCC(F)(F)F [Compound 835] |  | 70.7 nM | > 10000 nM |  |

The next lines start with results.

| IC50 [1] | IC50 (HT-29 cells) | IC50 (HCT116 cells) | SMILES | further results |
| --- | --- | --- | --- | --- |
| ≤ 100 nM | 75.3 nM | > 10000 nM | O=C(Nc1ccc([N+](=O)[O-])c(N2CCC(F)(F)CC2)c1)c1ccc(NS(=O)(=O)CCO)cc1N1CCC2(CC1)CC2 [Compound 1] |  |
| ≤ 100 nM | 134 nM | > 10000 nM | O=C(Nc1ccc([N+](=O)[O-])c(N2CCC(F)(F)CC2)n1)c1cnc(NS(=O)(=O)CCO)cc1N1CCC2(CC1)CC2 [Compound 129] |  |
| ≤ 100 nM | 55.2 nM | > 10000 nM | COc1ccc(NC(=O)c2ccc(NS(=O)(=O)CCO)cc2N2CCC3(CC2)CC3)nc1N1CC(F)(F)C1 [Compound 260] |  |
| ≤ 100 nM | 242 nM | > 10000 nM | COc1ccc(NC(=O)c2ccc(NS(=O)(=O)CCO)cc2N2CCC3(CC2)CC3)nc1N1CCC2(CC2)C1 [Compound 262] |  |
| ≤ 100 nM | 27.7 nM | > 10000 nM | COc1ccc(NC(=O)c2cnc(NS(=O)(=O)CCO)cc2N2CCC3(CC2)CC3)nc1N1CCC(F)(F)CC1 [Compound 289] |  |
| ≤ 100 nM | 146 nM | > 10000 nM | O=C(Nc1ccc(OCF)c(N2CCC(F)(F)CC2)c1)c1ccc(NS(=O)(=O)CCO)cc1N1CCC2(CC1)CC2 [Compound 385] |  |
| ≤ 100 nM | 97.9 nM | > 10000 nM | CSc1ccc(NC(=O)c2ccc(NS(=O)(=O)CCO)cc2N2CCC3(CC2)CC3)nc1N1CCC(F)(F)CC1 [Compound 593] |  |
| ≤ 100 nM |  |  | CSc1ccc(NC(=O)c2cnc(NS(=O)(=O)CCO)cc2N2CCC3(CC2)CC3)nc1N1CCC(C)(F)C1 (stereo not shown) [Compound 632] |  |
| ≤ 100 nM |  |  | CSc1ccc(NC(=O)c2cnc(NS(=O)(=O)CCO)cc2N2CCC3(CC2)CC3)nc1N1CCC(F)CC1 [Compound 633] |  |
| ≤ 100 nM |  |  | CSc1ccc(NC(=O)c2cnc(NS(=O)(=O)CCO)cc2N2CCC3(CC2)CC3)nc1N1CCOCC1 [Compound 636] |  |
| ≤ 100 nM |  |  | CSc1ccc(NC(=O)c2cnc(NS(=O)(=O)[C@@H](C)CO)cc2N2CCC3(CC2)CC3)nc1N1CCC(F)(F)CC1 [Compound 637] |  |
| ≤ 100 nM |  |  | CSc1ccc(NC(=O)c2cnc(NS(=O)(=O)[C@H](C)CO)cc2N2CCC3(CC2)CC3)nc1N1CCC(F)(F)CC1 [Compound 638] |  |
|  | 34.2 nM | > 10000 nM | CNc1ccc(NC(=O)c2ccc(NS(=O)(=O)CCO)cc2N2CCC3(CC2)CC3)nc1N1CCC(F)(F)CC1 [Compound 643] |  |
|  | 334 nM | > 10000 nM | CN(C)c1ccc(NC(=O)c2ccc(NS(=O)(=O)CCO)cc2N2CCC3(CC2)CC3)nc1N1CCC(F)(F)CC1 [Compound 647] |  |
|  | 1170 nM | > 10000 nM | O=C(Nc1ccc(OC(F)(F)F)c(N2CCC(F)(F)CC2)c1)c1ccc(NS(=O)(=O)CCO)cc1N1CCC2(CC1)CC2 [Compound 655] |  |
|  | 76.7 nM | > 10000 nM | Nc1ccc(NC(=O)c2ccc(NS(=O)(=O)CCO)cc2N2CCC3(CC2)CC3)cc1N1CCC(F)(F)CC1 [Compound 701] |  |
|  | 71.2 nM | > 10000 nM | CCOc1ccc(NC(=O)c2ccc(NS(=O)(=O)CCO)cc2N2CCC3(CC2)CC3)nc1N1CCC(F)(F)CC1 [Compound 702] |  |
|  | 146 nM | > 10000 nM | CN(C)c1ccc(C(=O)Nc2ccc(NS(=O)(=O)CCO)cc2N2CCC3(CC2)CC3)nc1N1CCC(F)(F)CC1 [Compound 705] |  |
|  | 52.9 nM | > 10000 nM | COc1ccc(NC(=O)c2ccc(NS(=O)(=O)CCO)cc2N2CCC(C)(C(F)(F)F)CC2)nc1N1CCC(F)(F)CC1 [Compound 833] |  |
|  | 253 nM | > 10000 nM | COc1c(C)cc(NC(=O)c2ccc(NS(=O)(=O)CCO)cc2N2CCC3(CC2)CC3)nc1N1CCC(F)(F)CC1 [Compound 836] |  |
